pIC50: −log10 of the molar value. Like-named read-outs stand apart in the source and are kept apart here.
Target: human NK1R (Homo sapiens, UniProt P25103)
Experiment: human NK1R assay: displacement of radiolabelled substance P binding
Procedure: The substance P antagonizing activity of the compounds described herein was evaluated using the human NK1R assay described in published European patent application no. 0 528 495. The method essentially involves determining the concentration of the test compound required to reduce by 50% the amount of radiolabelled substance P binding to human NK1R, thereby affording an IC50 value for the test compound.

[1] = radiolabelled substance P, assay as in EP 0 528 495, read-out: IC50 (concentration of the test compound required to reduce by 50% the amount of radiolabelled substance P binding to human NK1R)

Chain of human NK1R (P25103 whole entry): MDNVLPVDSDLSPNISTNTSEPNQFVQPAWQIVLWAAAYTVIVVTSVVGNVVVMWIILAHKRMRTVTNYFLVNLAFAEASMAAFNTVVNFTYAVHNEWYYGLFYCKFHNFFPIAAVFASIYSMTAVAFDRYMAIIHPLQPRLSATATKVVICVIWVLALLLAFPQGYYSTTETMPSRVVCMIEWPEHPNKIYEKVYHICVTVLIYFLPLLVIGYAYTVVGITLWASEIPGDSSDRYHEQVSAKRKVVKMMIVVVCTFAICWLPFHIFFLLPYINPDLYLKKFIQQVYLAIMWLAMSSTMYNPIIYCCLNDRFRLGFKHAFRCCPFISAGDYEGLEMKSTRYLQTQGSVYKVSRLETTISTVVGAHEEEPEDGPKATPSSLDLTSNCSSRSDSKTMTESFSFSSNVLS

Compound | pIC50 | pIC50 [1]
Cc1cc(C)cc(COC2CCCCC2(N)c2ccccc2)c1 (stereo not drawn) [Example 1, 1-(3,5-Dimethylbenzyloxy)-2-amino-2-phenylcyclohexane] | 7.00 | 
NC1(c2ccccc2)CCCCC1OCc1cc(C(F)(F)F)cc(C(F)(F)F)c1 (stereo not drawn) [Example 5, 1-(Bis-3,5-trifluoromethylbenzyoxy)-2-amino-2-phenylcyclohexane] |  | 6.46
NC(=O)CNC1(c2ccccc2)CCCCC1OCc1cc(C(F)(F)F)cc(C(F)(F)F)c1 (stereo not drawn) [Example 6, 1-(Bis-3,5-trifluoromethylbenzyoxy)-2-(carboxamido)methylamino-2-phenylcyclohexane] |  | 7.00
